Results: patent US20050026911A1, “Benzotriazapinone salts and methods for using same” (priority 2003, published 2005)

What was measured:
[1] = biological target: T1, gastrin (CCK2) receptors (Rattus norvegicus, UniProt P30553); assay: gastrin (CCK2) antagonist activity in an immature rat stomach assay; details: pentagastrin dose-response curves, acid secretion, read-out: pKB rat stomach (converted)
T1 construct: The stomach was excised and flushed with ca. 1 ml of unbuffered physiological saline solution; from tissue; host or cells: isolated whole stomach of immature rats (ca. 21 days old)
T1 sequence (P30553 1-452): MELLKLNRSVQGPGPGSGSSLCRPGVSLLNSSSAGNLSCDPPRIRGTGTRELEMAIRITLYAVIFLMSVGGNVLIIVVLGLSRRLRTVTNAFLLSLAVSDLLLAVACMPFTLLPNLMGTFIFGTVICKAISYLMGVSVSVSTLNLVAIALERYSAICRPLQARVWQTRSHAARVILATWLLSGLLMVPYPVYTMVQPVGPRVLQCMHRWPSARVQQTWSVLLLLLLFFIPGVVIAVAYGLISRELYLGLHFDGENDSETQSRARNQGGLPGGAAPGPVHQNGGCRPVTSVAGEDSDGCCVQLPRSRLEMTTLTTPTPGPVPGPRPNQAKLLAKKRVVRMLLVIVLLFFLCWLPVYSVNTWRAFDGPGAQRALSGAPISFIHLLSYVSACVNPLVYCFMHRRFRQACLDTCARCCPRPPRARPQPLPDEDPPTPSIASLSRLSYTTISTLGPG
How it was run: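 Pentagastrin dose-response curves were run cumulatively 60 min after drug went into the serosal bath, itself after 120 min stabilisation. Preparation: perfused stomach from rats ca. 21 days old (33-50 g), with unbuffered saline under 100% O2 at 1 ml min^−1 and perfusate pH monitored.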

[2] = biological target: T2, human gastrin (CCK2) receptors (Homo sapiens, UniProt P32239); assay: [125I]-BH-CCK-8S binding at human gastrin (CCK2) receptors cloned into an NIH3T3 cell line; details: for Ki: read-out: pKi ± s.e.mean (converted)
T2 construct: amplified by PCR (polymerase chain reaction) from the start codon to the stop codon; expressed in transfected cells
T2 sequence (P32239 1-447): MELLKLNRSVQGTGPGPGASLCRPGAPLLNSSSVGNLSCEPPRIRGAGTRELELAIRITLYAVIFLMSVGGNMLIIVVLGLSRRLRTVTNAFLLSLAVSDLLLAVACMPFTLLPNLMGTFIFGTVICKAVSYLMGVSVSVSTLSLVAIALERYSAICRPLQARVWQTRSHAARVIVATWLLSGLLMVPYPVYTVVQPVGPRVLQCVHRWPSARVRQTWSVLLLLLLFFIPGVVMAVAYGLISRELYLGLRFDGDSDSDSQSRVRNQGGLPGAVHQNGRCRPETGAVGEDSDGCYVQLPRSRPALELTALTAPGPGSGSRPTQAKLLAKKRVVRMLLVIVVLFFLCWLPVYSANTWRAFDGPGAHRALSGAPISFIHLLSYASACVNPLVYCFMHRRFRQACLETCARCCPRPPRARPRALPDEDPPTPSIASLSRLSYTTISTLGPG
Description: NIH3T3 cells from (ECACC) were cultured in Dulbecco's modified Eagle's medium (DMEM) (Invitrogen), containing 2 mM Glutamax I (Invitrogen), 10% heat inactivated newborn calf serum (Invitrogen). Cells (4×10^5) were seeded into 35 mm×10 mm dishes (Corning) and transfected using the Transfast™ reagent (Promega Corp.) according to the manufacturers instructions using 10 μg of the hCCK2R plasmid DNA at a ratio of 1:1 (DNA:Transfast™ reagent). Untransfected cells and cells transfected with vector only were also prepared as controls. After 48 h the cells were trypsinised using standard techniques (Culture of Animal Cells, A Manual of Basic Techniques 4th Ed, R. Ian Freshney) and dilutions were plated on 35 mm×10 mm dishes in media containing 800 μg/ml G-418 (Invitrogen). Cells were selected for 2 weeks until individual, separate colonies appeared. […] Using cloning rings and trypsinisation, according to standard techniques (Culture of Animal Cells, A Manual of Basic Techniques 4th Ed, R. Ian Freshney), individual colonies were picked from plates containing cells transfected with the vector only and cells transfected with the hCCK2R plasmid construct. The cells were expanded and analysed by radioligand binding analysis (see below).
Cultured clone 7 cells were stored as frozen pellets at −70° C. until required. Cell pellets were thawed in CCK2 assay buffer ((mM): 10 Hepes; 130 NaCl; 5 MgCl2; 4.7 KCl; 1 EGTA (pH7.2 at 21° C.) with 0.125 g Bacitracin added to each litre), and homogenised using a Polytron (4×1 s). The resulting membrane preparation was centrifuged at 39,800 g for 15 min at 4° C. Each cell pellet was re-suspended in fresh buffer and re-centrifuged as above. The final pellet was re-suspended by homogenisation (Teflon-in-glass), to the appropriate membrane concentration.
The assays were terminated by rapid filtration through pre-soaked Whatman GF/B filters which were washed (3×3 ml) with ice-cold 50 mM Tris HCl (pH7.4 @ 4° C.). Filters were transferred to plastic gamma counter vials and bound radioactivity determined by counting (1 min) in a Clini-gamma counter.
Saturation data were analysed using the curve-fitting programmes, Radlig and Ligand.
Briefly, dilution and addition of test compounds, radioligand and cell membranes were performed using a Beckman Biomek 2000. The ability of compounds to inhibit the specific binding of to hCCK2 receptors was determined in triplicate over a range of concentrations at half-log intervals. Total and non-specific binding was determined for each compound. Each compound was tested in a minimum of three experiments. Competition data were fitted to the Hill equation using Graph-pad Prism software to obtain estimates of the IC50 (mid-point location parameter) and nH (mid-point slope parameter). Dissociation constants (KI) were determined using the Cheng & Prusoff equation (1973) to correct for the receptor occupancy by the radioligand.

Structure (SMILES) | Kb [1] [nM] | Ki [2] [nM] | pKi ± s.e.mean ([2]; displacement of [125I]-BH-CCK-8S, hCCK2R NIH3T3 clone 7 cell membranes)
O=C(CN1N=C(C2CCCCC2)c2ccccc2N(CC(=O)C2CCCC2)C1=O)Nc1cccc(-c2nc(=O)o[nH]2)c1 [Example 121, 2-[5-Cyclohexyl-1-(2-cyclopentyl-2-oxo-ethyl)-2-oxo-1,2-dihydro-3H-1,3,4-benzotriazepin-3-yl]-N-[3-(5-oxo-Z 5-dihydro-[1,2,4]oxadiazol-3-yl)-phenyl]-acetamide] | 0.295 | 0.11 | 
Cc1cccc(NC(=O)N[C@@H]2N=C(c3ccccc3)c3ccccc3N(CC(=O)c3ccccc3C)C2=O)c1 [YM022, reference compound] |  |  | 10.19 ± 0.03
O=C(O)Cc1cccc(NC(=O)CN2N=C(C3CCCCC3)c3ccccc3N(CC(=O)C3CCCC3)C2=O)c1 [Example 56, (3-{2-[5-Cyclohexy-1-(2-cyclopentyl-2-oxo-ethyl)-2-oxo-1,2-dihydro-3H-1,3,4-benzotriazepin-3-yl]-acetylamino}-phenyl)-acetic acid] | 0.741 | 0.162 | 
O=C(CN1N=C(C2CCCCC2)c2ccccc2N(CC(=O)C2CCCC2)C1=O)Nc1cccc(C(=O)O)c1 [Example 22, 3-{2-[5-Cyclohexyl-1-(2-cyclopentyl-2-oxo-ethyl)-2-oxo-1,2-dihydro-3H-1,3,4-benzotriazepin-3-yl]-acetylamino}-benzoic acid] | 1.86 | 0.355 | 
CN1C(=O)N(CC(=O)Nc2ccccc2)[N+]([O-])=C(C2CCCCC2)c2ccccc21 [Example 160, 2-(5-Cyclohexyl-1-methyl-2-oxo-4-oxy-1,2-dihydro-3H-1,3,4-benzotriazepin-3-yl)-N-phenyl-acetamide] | 2.82 | 3240 | 
O=C(O)CCc1cccc(NC(=O)CN2N=C(C3CCCCC3)c3ccccc3N(CC(=O)C3CCCC3)C2=O)c1 [Example 128, 3-(3-{2-[5-Cyclohexyl-1-(2-cyclopentyl-2-oxo-ethyl)-2-oxo-1,2-dihydro-3H-1,3,4-benzotriazepin-3-yl]-acetylamino}-phenyl)-propionic acid] | 1.23 | 0.204 | 
CC(=O)N/C(=C\c1cccc(NC(=O)CN2N=C(C3CCCCC3)c3ccccc3N(CC(=O)C(C)(C)C)C2=O)c1)C(=O)O [Example 155, 2-Acetylamino-3-(3-{2-[5-cyclohexyl-1-(3,3-dimethyl-2-oxo-butyl)-2-oxo-1,2-dihydro-3H-1,3,4-benzotriazepin-3-yl]-acetylamino}-phenyl)-acrylic acid] | 70.8 |  | 
CNc1cccc(NC(=O)NCN2N=C(c3ccccn3)c3ccccc3N(CC(=O)C(C)(C)C)C2=O)c1 [Example 8, 1-[1-(3,3-Dimethyl-2-oxo-butyl)-2-oxo-5-pyridin-2-yl-1,2-dihydro-3H-1,3,4-benzotriazepin-3-ylmethyl]-3-(3-methylamino-phenyl)-urea] | 263 |  | 
CC(C)(C)C(=O)CN1C(=O)N(CC(=O)Nc2cccc(-c3nn[nH]n3)c2)N=C(C2CCCC2)c2ccccc21 [Example 10, 2-[5-Cyclopentyl-1-(3,3-dimethyl-2-oxo-butyl)-2-oxo-1,2-dihydro-3H-1,3,4-benzotriazepin-3-yl]-[3-(2H-tetrazol-5-yl)-phenyl]-acetamide] | 89.1 |  | 
CNc1cccc(NC(=O)CN2N=C(c3ccccn3)c3ccccc3N(CC(=O)N3CCCC3)C2=O)c1 [Example 6] | 1050 |  | 
CC1(C(=O)CN2C(=O)N(CC(=O)Nc3cccc(SCC(=O)O)c3)N=C(C3CCCCC3)c3ccccc32)CCCCC1 [Example 134, [3-(2-{5-Cyclohexyl-1-[2-(1-methyl-cyclohexyl)-2-oxo-ethyl]-2-oxo-1,2-dihydro-3H-1,3,4-benzotriazepin-3-yl}-acetylamino)-phenylsulfanyl]-acetic acid] | 17.4 |  | 
CC1(C(=O)CN2C(=O)N(CC(=O)Nc3cccc(CC(=O)O)c3)N=C(C3CCCCC3)c3ccccc32)CCCC1 [Example 82, [3-(2-{5-Cyclohexyl-1-[2-(1-methyl-cyclopentyl)-2-oxo-ethyl]-2-oxo-1,2-dihydro-3H-1,3,4-benzotriazepin-3-yl}-acetylamino)-phenyl]-acetic acid] | 9.55 |  | 
CC(C)(C)C(=O)CN1C(=O)N(CC(=O)Nc2ccc3ccn(Cc4nnn[nH]4)c3c2)N=C(C2CCCCC2)c2ccccc21 [Example 131, 2-[5-Cyclohexyl-1-(3,3-dimethyl-2-oxo-butyl)-2-oxo-1,2-dihydro-3H-1,3,4-benzotriazepin-3-yl]-N-[1-(1H-tetrazol-5-ylmethyl)-1H-indol-6-yl]-acetamide] | 1.62 |  | 

The next lines start with results.

Kb [1] [nM] | Ki [2] [nM] | Structure (SMILES) | pKi ± s.e.mean ([2]; displacement of [125I]-BH-CCK-8S, hCCK2R NIH3T3 clone 7 cell membranes)
67.6 |  | CNc1cc(NC(=O)CN2N=C(C3CCCCC3)c3ccccc3N(CC(=O)C(C)(C)C)C2=O)cc(C(=O)O)c1 [Example 73, 3-{2-[5-Cyclohexyl-1-(3,3-dimethyl-2-oxo-butyl)-2-oxo-1,2-dihydro-3H-1,3,4-benzotriazepin-3-yl]-acetylamino}-5-methylamino-benzoic acid] | 
93.3 |  | CC(C)(C)C(=O)CN1C(=O)N(CC(=O)NCc2cccc(C(=O)O)c2)N=C(C2CCCCC2)c2ccccc21 [Example 45, 3-({2-[5-Cyclohexyl-1-(3,3-dimethyl-2-oxo-butyl)-2-oxo-1,2-dihydro-3H-1,3,4-benzotriazepin-3-yl]-acetylamino}-methyl)-benzoic acid] | 
27.5 |  | CNc1cc(NC(=O)CN2N=C(C3CCCCC3)c3ccccc3N(CC(=O)C(C)(C)C)C2=O)ccc1OC [Example 105, 2-[5-Cyclohexyl-1-(3,3-dimethyl-2-oxo-butyl)-2-oxo-1,2-dihydro-3H-1,3,4-benzotriazepin-3-yl]-N-(4-methoxy-3-methylamino-phenyl)-acetamide] | 
7.76 |  | CC(C)(C)C(=O)CN1C(=O)N(CC(=O)Nc2cccc(-c3ccc(C(=O)O)s3)c2)N=C(C2CCCCC2)c2ccccc21 [Example 157, 5-(3-{2-[5-Cyclohexyl-1-(3,3-dimethyl-2-oxo-butyl)-2-oxo-1,2-dihydro-3H-1,3,4-benzotriazepin-3-yl]-acetylamino}-phenyl)-thiophene-2-carboxylic acid] | 
77.6 |  | COc1ccc(NC(=O)CN2N=C(C3CCCCC3)c3ccccc3N(CC(=O)C(C)(C)C)C2=O)cc1 [Example 32, 2-[5-Cyclohexyl-1-(3,3-dimethyl-2-oxo-butyl)-2-oxo-1,2-dihydro-3H-1,3,4-benzotriazepin-3-yl]-N-(4-methoxy-phenyl)-acetamide] | 
14.1 |  | CC(C)(C)C(=O)CN1C(=O)N(CC(=O)Nc2ccc3cnn(CC(=O)O)c3c2)N=C(C2CCCCC2)c2ccccc21 [Example 99, (6-{2-[5-Cyclohexyl-1-(3,3-dimethyl-2-oxo-butyl)-2-oxo-1,2-dihydro-3H-1,3,4-benzotriazepin-3-yl]-acetylamino}-indazol-1-yl)-acetic acid] | 
